The text below walks through data of patent US10815197B2, “N-sulfonyl benzamides as voltage-gated sodium channel inhibitors” (SHANGHAI HAIYAN PHARMACEUTICAL TECHNOLOGY CO., LTD., priority 2016, dated 2020).

By half-life is commonly meant the time in which the quantity being followed falls by half. Low values mean rapid decline, high ones slow decline. As a reminder, the inhibition is the change of the read-out against control, counted positive when it falls.

Where two headings read alike, the source gives them in different places.

A short description of data set [1]: Metabolism stability assay, human liver microsomes. The format is in vitro ADME. The following applies: for metabolic stability (in words): from Table 7; for half-life at 1 µM: pH 7.4. The protocol: Assay 4: Metabolism Stability Assay 1. […] Buffer A: 1 L solution of 100 mM potassium dihydrogen phosphate containing 1 mM EDTA (Sigma, V900157-100G) was prepared. Buffer B: 1 L solution of 100 mM dipotassium hydrogen phosphate containing 1 mM EDTA was prepared. Buffer C: 700 mL of buffer B was taken out and titrated with buffer A to pH 7.4. 2. […] 2.2 20 μl (20 mg/mL) of liver microsomes (Corning Lot. NO. 4133007) stock solution was added to 513.4 μl of buffer C on wet ice. 0.75 mg/mL liver microsomal solution was obtained. 2.3 1.5 μl of each of the above-mentioned compound to be tested and ketanserin solution was added to 498.5 μl of liver microsomal solution (0.7 5 mg/mL) respectively on wet ice. 1.5 μM mixed solution of compound to be tested and 1.5 μM mixed solution of ketanserin were obtained. 2.4 At the time points 0, 5, 15, 30, 45, and 60 min, 30 μl of the mixed solution of compound to be tested and 30 μl of the mixed solution of ketanserin were dispensed into the reaction plate on wet ice, respectively. 2.5 5 mg reduced coenzyme II (Roche, 10621706001) was weighed and dissolved in 1 mL of buffer C. 6 mM reduced coenzyme II solution was obtained. The reduced coenzyme II solution was dispensed into the reaction plate. 2.6 Imipramine was dissolved to give a 10 mM solution. 10 μl of imipramine solution was added to 100 mL of blank acetonitrile to generate the internal reference. 2.7 At 0 min, 135 μL of iced acetonitrile (Merck (Lot. 1778229518)) containing the internal reference was added to each well and then 15 μL of buffer C was added. 2.8 The reaction plate was placed into a 37° C. water bath incubator for 5 min. In the reaction plate, 15 μL of reduced coenzyme II solution was added to each well to initiate the reaction, and the timing was started. At the time points of 5, 15, 30, 45, and 60 min, 135 μL of iced acetonitrile containing the internal reference was added to each well to terminate the reaction. 2.9 The reaction plate was sealed with an aluminum film, placed on a vibration mixer and shaken at 500 rpm for 5 min. The plate was then centrifuged in a centrifuge at 3750 rp for 15 min. 2.10 The sample was diluted with pure water in accordance with the ratio of 1:1 and detected by LC/MS. Half-life: 0.693/K (the slope by plotting based on the incubation time and logarithm of the concentration value) Clearance ratio: (0.693/half-life)*(1/protein concentration (0.5 mg/mL))*(proportional factor) Wherein, the K value and the proportional factor were calculated by those skilled in the art according to the methods described in the prior art and contained in the instructions of the liver microsome product.
In general terms: Microsomes from liver hold many membrane-bound enzymes, among them those of drug oxidation.

Data set [2] concerns the target T1, hNav1.7 (Homo sapiens, UniProt Q15858).
T1 construct: host or cells: CHO
The data set can be described thus: Manual patch clamp experiment hNav1.7 (CHO-hNav1.7 stable cell line). It is filed as cell-based. The settings on record: for inhibition at 0.1 µM: read-out: Inhibition of Nav1.7 100 nM(%); for inhibition at 1 µM: read-out: Inhibition of Nav1.7 1000 nM(%). The text has this: Assay 1: Manual Patch Clamp Experiment of Sodium Ion (hNav1.7, hNav1.5 and hNaV1.8) and Calcium Ion (hCav3.2) Channels
hNav1.7, hNav1.5 Manual Patch Clamp Experiment:
Patch voltage clamp electrophysiology allows for the direct measurement and quantification of current block of voltage-gated sodium channels (NaV's), and allows the determination of the time and voltage-dependence of block which has been interpreted as differential binding to the resting, open and inactivated states of the sodium channel to reflect the compound's inhibitory or activating effects (Hille, B., Journal of General Physiology (1977), 69: 497-515).
Representative compounds of the present invention were subject to a manual patch clamp experiment and the purpose of this study was to test the effect of compounds on this ion channel current on a stable cell line transfected with a specific ion channel using a manual patch clamp method. The used stable cell lines CHO-hNav1.7 and HEK-hNav1.5 were from Genionics and WuXi Apptec (Shanghai) respectively.
Manual patch clamp experimental program is as follows:
(1) Preparation of solutions and compounds: The whole cell patch clamp technique was used to record hNav1.7 and hNav1.5 currents. In the experiment, the composition of extracellular fluid (mM): HEPES: 5, NaCl: 40, KCl: CaCl2: 1, MgCl2: 1, CdCl2: 0.1, TEA-Cl: 20. The pH was adjusted to 7.3 with NaOH and the osmotic pressure was adjusted to 310-320 mOsm with sucrose, filtered and stored at 4° C. The composition of the intracellular fluid (mM): HEPES: 10, NaCl: 10, CsOH: 5, CsF: 140, EGTA: 1. The pH was adjusted to 7.3 with CsOH and the osmotic pressure was adjusted to 280-290 mOsm with sucrose, filtered and stored at −20° C.
The positive control and the test compound were firstly dissolved in 100% DMSO (Sigma-Aldrich, D2650), configured as stock solution at a concentration (100 nM, 1000 nM).) The above stock solution was serially diluted with DMSO prior to the experiment, the solution was further diluted with extracellular solution to obtain the test solution of the desired concentration.
(2) Manual Patch Clamp Experiment: The cell suspension was added to a 35 mm petri dish and placed on an inverted microscope stage. The cells were perfused with an extracellular fluid and the flow rate was 1-2 mL/min after cell adherence. The glass microelectrode was prepared in two steps by a microelectrode puller with an inlet water resistance of 2-5 MΩ. A/D-D/A digital-analog conversion was performed by Digidata 1440 (Molecular Devices) and pCLAMP software (version 10.2, Molecular Devices) for stimulation and signal acquisition; the signal was amplified by patch clamp amplifier (Multiclamp 700B, Molecular Devices), and filtering is 4 KHz.
Two different voltage stimulation procedures were used in the hNav1.7 and hNav1.5 manual patch clamp experiments.
One is the inactivation stimulation program, the clamp potential is set at V1/2 of the corresponding channel, i.e., about 50% of the channels are inactivated, then the voltage is applied to −120 mV for 50 ms, then depolarized to −10 mV for 20 ms leading to sodium current, and finally returned to the clamp potential. This stimulation program can also be called channel state-dependent voltage stimulation program.
The other is the non-inactivation stimulation program, the clamp potential is maintained at −120 mV, voltage stimulation is given to −10 mV for 20 ms leading to sodium current, and finally returned to the clamp potential. That is, all channels have not experienced inactivation status, but activate directly from the resting state under the conditions of the stimulation program.
The time intervals of these two voltage stimulation programs were 10 s. The inhibitory effect of the compound was calculated by the change of the current before and after dosing, the IC50 value was fitted by the Hill equation.
In general terms: The patch-clamp technique gives a direct electrical read-out from membranes.

T1 sequence (Q15858 whole entry): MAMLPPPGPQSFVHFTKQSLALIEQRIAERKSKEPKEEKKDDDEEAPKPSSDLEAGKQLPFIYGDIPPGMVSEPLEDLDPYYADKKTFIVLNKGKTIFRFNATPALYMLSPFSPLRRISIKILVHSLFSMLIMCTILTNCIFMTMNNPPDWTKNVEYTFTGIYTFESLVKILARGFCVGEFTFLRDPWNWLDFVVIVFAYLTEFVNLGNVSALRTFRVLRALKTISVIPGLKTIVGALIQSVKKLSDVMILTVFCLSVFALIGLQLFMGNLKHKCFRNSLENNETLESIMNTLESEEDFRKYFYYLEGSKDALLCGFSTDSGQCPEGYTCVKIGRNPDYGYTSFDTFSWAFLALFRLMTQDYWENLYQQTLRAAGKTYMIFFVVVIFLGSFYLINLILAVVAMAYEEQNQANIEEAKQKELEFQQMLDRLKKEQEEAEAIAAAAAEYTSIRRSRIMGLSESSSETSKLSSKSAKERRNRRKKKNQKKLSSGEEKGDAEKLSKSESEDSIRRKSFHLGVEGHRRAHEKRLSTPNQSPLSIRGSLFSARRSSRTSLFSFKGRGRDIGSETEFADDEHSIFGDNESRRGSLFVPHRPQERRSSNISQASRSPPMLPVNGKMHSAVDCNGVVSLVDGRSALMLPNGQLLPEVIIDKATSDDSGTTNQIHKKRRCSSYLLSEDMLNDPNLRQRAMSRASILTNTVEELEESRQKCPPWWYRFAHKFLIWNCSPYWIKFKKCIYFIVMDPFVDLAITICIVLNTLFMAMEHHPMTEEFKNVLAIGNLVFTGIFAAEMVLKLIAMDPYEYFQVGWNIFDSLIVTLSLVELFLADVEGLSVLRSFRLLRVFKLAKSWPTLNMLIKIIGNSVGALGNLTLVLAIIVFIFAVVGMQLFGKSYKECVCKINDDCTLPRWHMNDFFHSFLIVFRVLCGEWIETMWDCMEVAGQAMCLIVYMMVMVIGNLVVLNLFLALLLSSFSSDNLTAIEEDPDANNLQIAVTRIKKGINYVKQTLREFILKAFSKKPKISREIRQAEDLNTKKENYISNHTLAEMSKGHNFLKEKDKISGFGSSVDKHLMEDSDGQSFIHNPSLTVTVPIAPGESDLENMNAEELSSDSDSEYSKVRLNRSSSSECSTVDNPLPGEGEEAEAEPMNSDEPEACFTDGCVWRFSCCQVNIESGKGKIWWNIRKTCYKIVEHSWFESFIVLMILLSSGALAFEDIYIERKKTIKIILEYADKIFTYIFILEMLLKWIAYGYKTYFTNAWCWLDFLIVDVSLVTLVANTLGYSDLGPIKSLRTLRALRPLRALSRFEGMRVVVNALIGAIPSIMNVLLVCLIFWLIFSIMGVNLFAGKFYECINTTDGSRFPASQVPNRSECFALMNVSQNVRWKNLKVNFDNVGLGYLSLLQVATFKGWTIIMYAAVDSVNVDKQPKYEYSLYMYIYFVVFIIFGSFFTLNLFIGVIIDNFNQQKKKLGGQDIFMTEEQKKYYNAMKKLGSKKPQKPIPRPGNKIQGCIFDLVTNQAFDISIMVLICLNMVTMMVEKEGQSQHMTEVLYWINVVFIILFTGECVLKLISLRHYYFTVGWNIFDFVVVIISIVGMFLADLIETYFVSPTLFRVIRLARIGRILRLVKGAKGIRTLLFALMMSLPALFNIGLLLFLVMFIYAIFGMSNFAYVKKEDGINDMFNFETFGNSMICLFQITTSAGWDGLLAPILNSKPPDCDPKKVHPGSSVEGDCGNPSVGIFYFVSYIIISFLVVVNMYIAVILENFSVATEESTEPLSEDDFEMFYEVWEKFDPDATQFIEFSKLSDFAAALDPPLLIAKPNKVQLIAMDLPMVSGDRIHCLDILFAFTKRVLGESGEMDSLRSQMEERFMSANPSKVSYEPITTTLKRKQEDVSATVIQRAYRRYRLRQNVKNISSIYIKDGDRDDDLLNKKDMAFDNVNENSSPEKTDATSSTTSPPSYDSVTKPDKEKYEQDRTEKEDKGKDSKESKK

As for `Cc1cc(N2CCN(Cc3cc(F)c(C(=O)NS(C)(=O)=O)cc3Cl)CC2)ccc1Cl` [Compound C13, reference compound], in data set [1], the “Clearance” value is given as 138.91 mL/min/kg, the “metabolic stability (in words)” value is given as “significantly reduced” and the half-life at 1 µM was 0.208 h.
As for `O=C(NS(=O)(=O)C1CC1)c1cc(Cl)c(CN2CCN(c3ccc(OC(F)(F)F)cn3)CC2)cc1F` [Compound Z-159], in data set [1], the “Clearance” value is reported as 3.69 mL/min/kg and the half-life at 1 µM is 7.84 h. In addition, the inhibition at 0.1 µM in data set [2] (compound at 100 nM) was found to be 90.6%. Also, the inhibition at 1 µM in data set [2] (compound at 1000 nM) came out at 97.3%.
In the case of `Cc1cc(C(=O)NS(=O)(=O)C2CC2)c(F)cc1OC[C@H]1CCCN1c1ccc(C(F)(F)F)cn1` [Compound Z-195], in data set [1], the “Clearance” value came to 20.86 mL/min/kg and the half-life at 1 µM worked out at 1.39 h. The inhibition at 0.1 µM in data set [2] (compound at 100 nM) is 76.7%. In data set [2] (compound at 1000 nM), the inhibition at 1 µM was 92.7%.
`CS(=O)(=O)NC(=O)c1cc(Cl)c(CN2CCN(c3ccc(C4CC4)c(Cl)c3)CC2)cc1F` [Compound C12, reference compound]: in data set [1], the “Clearance” value was found to be 78.28 mL/min/kg, the “metabolic stability (in words)” value is on record as “significantly reduced” and the half-life at 1 µM is 0.37 h.
With `O=C(NS(=O)(=O)C1CC1)c1cc(Cl)c(OC[C@H]2CCCN2c2ccc(C(F)(F)F)nc2)cc1F` [Compound Z-119, (R)-5-chloro-N-(cyclopropylsulfonyl)-2-fluoro-4-((1-(6-(trifluoromethyl)pyridin-3-yl)pyrrolidin-2-yl)methoxy) benzamide], in data set [1], the “Clearance” value was found to be 22.57 mL/min/kg and the half-life at 1 µM came to 1.28 h.
`O=C(NS(=O)(=O)C1CC1)c1cc(Cl)c(OC2CCN(c3ccc(Cl)c(Cl)c3)CC2)cc1F` [Compound Z-117, 5-chloro-N-(cyclopropylsulfonyl)-4-((1-(3,4-dichlorophenyl)piperidin-4-yl)oxy)-2-fluorobenzamide]: in data set [1], the “Clearance” value was 5.41 mL/min/kg and the half-life at 1 µM came out at 5.36 h. In addition, in data set [2] (compound at 100 nM), the inhibition at 0.1 µM is 89.3%. Moreover, in data set [2] (compound at 1000 nM), the inhibition at 1 µM turned out to be 96.1%.
On to `O=C(NS(=O)(=O)C1CC1)c1cc(Cl)c(OC[C@H]2CCCN2c2ccc(C(F)(F)F)cc2)cc1F` [Compound Z-80, (R)-5-chloro-N-(cyclopropylsulfonyl)-2-fluoro-4-((1-(4-(trifluoromethyl)phenyl)pyrrolidine-2-yl)methoxy)benzamide], for which, in data set [1], the “Clearance” value was found to be 36.37 mL/min/kg and the half-life at 1 µM turned out to be 0.796 h. For the same compound, the inhibition at 0.1 µM in data set [2] (compound at 100 nM) is 90.5%. The inhibition at 1 µM in data set [2] (compound at 1000 nM) was found to be 96.8%.
The corresponding values for `O=C(NS(=O)(=O)C1CC1)c1cc(Cl)c(CN2CCN(c3ccc(OC(F)(F)F)c(Cl)c3)CC2)cc1F` [Compound Z-92] are 0.07 mL/min/kg, 420 h, 94.5% and 97.3%.
Take `O=C(NS(=O)(=O)C1CC1)c1cc(Cl)c(CN2CCN(c3ccc(Cl)c(Cl)c3)CC2)cc1F` [Compound Z-89, 5-chloro-N-(cyclopropylsulfonyl)-4-((4-(3,4-dichlorophenyl)piperazin-1-yl)methyl)-2-fluorobenzamide]: in data set [1], the “Clearance” value is on record as 6.49 mL/min/kg and the half-life at 1 µM came out at 4.46 h. Besides, in data set [2], the inhibition at 0.1 µM was found to be 94.8% and the inhibition at 1 µM stood at 99.7%.
